Reference: patent publication US10869904B2, “Pharmaceutical composition for preventing or treating respiratory disease comprising extract of Justicia procumbens L” (DONG WHA PHARM. CO., LTD., priority 2016, dated 2020)

Tested on: ICR mice
Test: Test for evaluation of expectorant activity (phenol red in trachea)
Format: in vivo
Settings: 200 mg/kg, oral, male ICR mice
Method: In order to evaluate the expectorant activities of the water and ethanol extracts of Justicia procumbens L., prepared in Preparation Examples 1-1 to 1-2, a test for evaluation of expectorant activity was performed using male ICR mice (weighed 30 to 33 g; Orientbio). Specifically, the extracts and the comparative drug ambroxol (200 mg/kg, Boehringer Ingelheim) were administered orally to the respective groups of mice that fasted the previous day. […] The isolated trachea was freeze-stored in 1 ml of physiological saline for 24 hours. Next, the trachea was sonicated, and 1N NaOH was added to the supernatant (0.1 ml of 1N NaOH per ml of the supernatant). Then, the absorbance at 546 nm was measured and the expectorant activity was measured with the concentration of phenol red.

With `Nc1c(Br)cc(Br)cc1CN[C@H]1CC[C@H](O)CC1` [Ambroxol, ambroxol] the “Expectoration (%, n = 4, Mean ± SE)” value was 11.4 ± 12.89%.
